Results filed as inconclusive are left out. Calls of active or inactive are those of the source. The rule behind the calls is not given here.

This note sets out measurements from PubChem BioAssay AID2202554 (NIEHS Division of Translational Toxicology (DTT)).

In the series the test system is S. typhimurium/E. coli reverse mutation, colony counts. The experiment in a line: Bacterial reverse mutation test (aka Ames test) summary data.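 Note: His-minus Salmonella and trp-minus E. coli WP2 uvrA pKM101 with or without liver S9.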 The source says: The Ames test uses bacteria cultures to determine whether a substance causes mutations. Because there is a significant overlap between substances that are mutagens and those that are carcinogens, a quick and inexpensive mutagenicity test is useful as an initial screening for possible carcinogens.
The Ames test relies on specific strains of S. typhimurium, namely: TA97, TA98, TA100, TA102, TA104, TA1535, TA1537, and TA1538. In addition to the S. typhimurium strains, the test may also use the E. coli strain WP2 uvrA pKM101.
Each of the bacterial strains has a mutation that prevents it from making an amino acid (a protein building block) required for normal cell growth. The S. typhimurium strains are unable to manufacture histidine; the E. coli strain cannot manufacture tryptophan. The tester strains will not be able to grow without amino acid supplementation, unless the mutated gene is changed back to the correct DNA sequence (reversion mutation). Being exposed to a mutagenic chemical increases the chance that the mutant gene will be restored to the correct sequence, which allows the bacteria to grow and form colonies. Each substance under study is tested in a variety of bacterial strains with different types of altered DNA sequences in order to provide a comprehensive assessment of the mutagenic potential of the substance.
Some non-mutagenic substances are converted to mutagenic substances when metabolized by the liver; in contrast, some substances that are mutagenic in their natural state are converted to non-mutagens by the liver. All substances are tested in their natural state, as well as in the presence of liver enzymes that can produce this metabolic conversion of the test substance. Extracts of rat, hamster, or mouse liver enzymes (S9 mix) are used for this purpose.
D. Preparing the Cultures
Multiple sets of cultures are prepared using a range of doses and different amounts of liver enzymes for each bacterial strain. Each culture is prepared in a test tube containing a suspension of one bacterial strain and either an S9 mix or plain buffer solution. Then the test substance is added. Negative control cultures are established using the same ingredients, but without the test substance. Positive control cultures are established using known mutagens active in particular bacterial strains and metabolic conditions (for example, with or without S9). Once prepared, each culture is incubated for 20 minutes at 37° C. Agar is then added to the cultures, and the contents of each tube are poured onto the surface of a Petri dish that was prepared with standard bacterial culture medium. The plates are then incubated, usually for two days.
Depending on the substance to be tested, the exposure and incubation processes may be modified. These variations include:
- Elimination of the 20-minute incubation period in a test tube prior to plating (this method is referred to as the standard plate incorporation method)
- Enzymatic reduction of azo and diazo substances (this process occurs in the intestine or liver of animals) using a chemical called flavin mononucleotide (FMN) or intestinal bacterial preparations from rats
- Testing in sealed chambers such as desiccators for volatile and gaseous chemicals.
To validate the test, a trained investigator compares the number of colonies on the chemical-treated plates to the number of colonies on the negative control plates. If the substance under test is mutagenic, the chemical-treated plates will have a much greater number of colonies than the negative control plates.
- A positive response is a reproducible, dose-related increase in mutant colonies in any single strain, with or without the addition of S9 metabolic enzymes. While there is no minimum percentage of increase required for a result to be considered positive, a twofold increase in mutant colonies in a treated plate is usually considered to be a positive (mutagenic) response.
[…]
Take `C=CC(=O)OCCOCCOCCOCCOC(=O)C=C`: the outcome was “inactive; negative”.

Regarding `Nc1ccc(S(=O)(=O)Nc2ccccn2)cc1`, the outcome was “inactive; negative”. The same measure for `CSSC`: “inactive; negative”; for `Cc1ccc(N(C)C)cc1`: “inactive; negative”; for `CN=[N+](C)[O-]`: “active; weakly positive”. The same measure for `CN(C)CCN(Cc1ccccc1)c1ccccn1`: “inactive; negative”; for `C=C1C/C(=C/C)C(=O)O[C@@H]2CCN3CC=C(COC(=O)[C@]1(C)O)[C@H]23`: “active; positive”. The same measure for `Clc1ccccn1`: “active; positive”; for `CC(C)(C)OOC(C)(C)C`: “inactive; negative”; for `C[N+](=O)[O-]`: “inactive; negative”. As to `Cc1ccc(Nc2ccc(O)c3c2C(=O)c2ccccc2C3=O)cc1`, the outcome is “inactive; negative”. The same measure for `COc1ccc(C=O)cc1OC`: “inactive; negative”.

`Nc1ccc(N)c(Cl)c1`: the outcome is “active; positive”. With `CC(=O)NNc1ccccc1`, the outcome was “active; positive”. On to `CC(C)OCC1CO1` (centres undefined), for which the outcome was “active; positive”. The same measure for `O=C(O)CCCc1ccc(N(CCCl)CCCl)cc1`: “active; positive”; for `Cc1cccc([N+](=O)[O-])c1C(=O)O`: “active; positive”; for `CCCCNCCCC`: “inactive; negative”. As for `O=C(NC(S)c1nc2ccccc2s1)NC(S)c1nc2ccccc2s1` (centres undefined), the outcome is “active; positive”. Turning to `CCc1ccccc1N`, the outcome is “inactive; negative”. Under `Nc1c2ccccc2nc2ccccc12` stands “active; positive”; under `C[C@H](Cn1cnc2c(N)ncnc21)OCP(=O)(O)O`, “active; positive”; under `N#CCCC(Br)(C#N)CBr` (centres undefined), “inactive; negative”. Under `CCOC=O` stands “inactive; negative”; under `NCCCCCCN`, “inactive; negative”; under `CCCCCCCCCCCCCC(=O)N[N+](C)(C)CC(C)[O-]` (centres undefined), “inactive; negative”.

As for `Nc1ccc([As](=O)(O)O)cc1`, the outcome is “inactive; negative”. Under `CCN(CC)N=O` stands “active; positive”. Under `CCCCCCOCC1CO1` (centres undefined) stands “active; positive”; under `Nc1cccc(S(=O)(=O)O)c1`, “inactive; negative”. The same measure for `C=C(C)C(=O)OCCCCCCCCCC`: “inactive; negative”; for `CCOCCOC(=O)C=Cc1ccc(OC)cc1`: “inactive; negative”; for `CCNC(=O)CC(C)=O`: “inactive; negative”. For the molecule `FC(F)(F)C(Cl)Br` (centres undefined), the outcome was “inactive; negative”. Under `COc1ccc(C=O)cc1` stands “inactive; negative”; under `Clc1ccc(C(c2ccc(Cl)cc2)C(Cl)(Cl)Cl)cc1`, “inactive; negative”. As to `ClCc1cccnc1`, the outcome was “active; positive”. Under `OCC1CO1` (centres undefined) stands “active; positive”; under `O=Cc1ccc(CO)o1`, “active; weakly positive”. The same measure for `CN(C)c1ccccc1`: “inactive; negative”.

Turning to `CC(O)CNCC(C)O` (centres undefined), the outcome is “inactive; negative”.

`Cc1c(O)c(Br)c(Br)c(Br)c1Br`: the outcome is “inactive; negative”.

`c1ccc(O[Si](Oc2ccccc2)(Oc2ccccc2)Oc2ccccc2)cc1`: the outcome was “inactive; negative”. Under `O=[N+]([O-])c1ccccc1O` stands “inactive; negative”; under `COc1ccc(OC)cc1`, “inactive; negative”; under `NS(=O)(=O)c1cc2c(cc1Cl)NC=NS2(=O)=O`, “inactive; negative”. The same measure for `NCCNCCNCCNCCN`: “active; positive”; for `COC(C)(C)CC(C)=O`: “inactive; negative”. Turning to `CCCCCC=CC=CC=O`, the outcome was “inactive; negative”. With `Nc1ccc(Oc2ccc(N)cc2)cc1`, the outcome is “active; positive”.

Turning to `Cc1cc(C)nc(NS(=O)(=O)c2ccc(N)cc2)n1`, the outcome was “inactive; negative”. Turning to `CCN(Cc1ccccc1)c1ccccc1`, the outcome was “inactive; negative”. Under `Brc1ccccc1` stands “inactive; negative”; under `Cc1ccc(C)cc1`, “inactive; negative”; under `CCCCOCCOCCO`, “inactive; negative”. The same measure for `Nc1ccc(N=Nc2ccccc2)cc1`: “active; positive”; for `CC=O`: “inactive; negative”; for `O=[N+]([O-])c1ccc(F)c([N+](=O)[O-])c1`: “active; positive”. The same measure for `CC(=O)CC(=O)Nc1ccccc1`: “inactive; negative”; for `C/C=C/C=C/C(=O)O`: “inactive; negative”; for `C[C@@H]1C[C@@H]([C@H](O)CC2CC(=O)NC(=O)C2)C(=O)[C@@H](C)C1`: “inactive; negative”. With `c1ccc(Oc2ccccc2)cc1`, the outcome was “inactive; negative”. As to `C=CC(=O)NCO`, the outcome is “inactive; negative”.

Regarding `CCCCCCCCCCC1CO1` (centres undefined), the outcome was “inactive; negative”.

Take `O.O.O.O.O.O.O=[N+]([O-])[O-].O=[N+]([O-])[O-].O=[N+]([O-])[O-].[La+3]`: the outcome was “inactive; negative”. Take `Nc1cc(Cl)cc(C(=O)O)c1Cl`: the outcome was “active; positive”. With `C=CCc1ccc(OC)cc1`, the outcome was “inactive; negative”. For the molecule `C1COCCO1`, the outcome is “inactive; negative”. Take `CN(C)C(=S)N(C)C`: the outcome was “inactive; negative”. Under `CCOC(=O)CC(C)O` (centres undefined) stands “inactive; negative”; under `Oc1cccc(O)c1`, “inactive; negative”. As for `CCCC[n+]1ccccc1`, the outcome was “inactive; negative”. Turning to `O=[N+]([O-])c1cc([N+](=O)[O-])c2ccc(S(=O)(=O)O)cc2c1O`, the outcome was “active; positive”. Under `CCCC=NO` stands “active; weakly positive”. Consider `c1cnc2c(c1)ccc1cccnc12`, for which the outcome was “inactive; negative”. Under `N#CC(Cl)(Cl)Cl` stands “active; weakly positive”; under `COC(F)(F)C(Cl)Cl`, “inactive; negative”; under `O=C(O)CBr`, “active; positive”.

As to `O[C@H]([C@H](O)[C@@H](O)CBr)[C@H](O)CBr`, the outcome was “active; positive”. Under `Nc1ncn[nH]1` stands “inactive; negative”; under `CCCC[N+]1(C)CCCC1`, “inactive; negative”. Under `Clc1ccc(COC(Cn2ccnc2)c2ccc(Cl)cc2Cl)cc1` (centres undefined) stands “inactive; negative”.

In the case of `Clc1nc2ccccc2nc1Cl`, the outcome is “inactive; negative”. The same measure for `C[Si](C)(C)O[Si](C)(O[Si](C)(C)C)O[Si](C)(C)C`: “inactive; negative”; for `CC1CCC2CC1C2(C)C` (centres undefined): “inactive; negative”. In the case of `O=[N+]([O-])c1c(Cl)c(Cl)cc(Cl)c1Cl`, the outcome is “active; weakly positive”.

On to `Cc1cc(C)cc(O)c1`, for which the outcome was “inactive; negative”. The same measure for `COC(=O)Nc1cccc(OC(=O)Nc2cccc(C)c2)c1`: “active; positive”; for `CCCCCCCCC`: “inactive; negative”. As for `Cc1ccccc1C#N`, the outcome was “inactive; negative”. The same measure for `O=Cc1ccccc1C=O`: “active; positive”; for `C=C(C)[C@H]1CC=C(C)C(=O)C1`: “inactive; negative”. Under `C=C(C)C1CC=C(C)C(O)C1` (centres undefined) stands “inactive; negative”. The same measure for `COc1cc(-c2ccc(N=Nc3c(S(=O)(=O)O)cc4cc(S(=O)(=O)O)cc(O)c4c3O)c(OC)c2)ccc1N=Nc1c(S(=O)(=O)O)cc2cc(S(=O)(=O)O)cc(O)c2c1O`: “inactive; negative”.
